Patent US20220079913A1, “DIHYDROMYRICETIN WITH ANTI-ALCOHOLIC EFFECT” (Shanghai Spark Pharmaceutical Co., Ltd., priority 2020, published 2022)

Tests used:
ICR mice [1] = assay: Acute toxicity of dihydromyricetin, single oral gavage; assay type: in vivo
Method: (§1) Observation of the Acute Toxicity of Dihydromyricetin on ICR Mice
(§2) Preparation of test substance: weighing the test substance of the required quality; adding sterile water for injection to prepare it to the required concentration; mixing well before administration.
(§3) Animal breeds and strains: ICR mice
(§4) After the adaptation period, 30 experimental animals were divided into 3 groups, half male and […]. After fasting for 12 hours, according to the body weight, the control reagents or the test substance were administered orally respectively. The animal's clinical symptoms after administration are observed, with abnormal records. The animals were weighed before the administration and on the 1, 3, 5, and 7 days after the administration. At the end of the experiment, the animals were euthanized by inhalation of excessive CO2

[2] = as above; assay type: in vivo, mice; conditions: ICR, mouse, in vivo, po
Method: as §1, §2, §3, §4

[3] = cited from earlier work
ICR mice [4] = assay: Anti-alcoholic (hangover) test; assay type: in vivo; conditions: for Number of deaths / Number of drunks: 20 animals; for Number of deaths / Number of drunks / Drunkenness rate / Mortality rate: after 10 hours of drinking
Method: as §2, §3
60 experimental animals were divided into 3 groups, half male and […]. After fasting for 12 hours, according to the body weight, the control reagents the test substance were administered orally respectively.

`O=C1c2c(O)cc(O)cc2OC(c2cc(O)c(O)c(O)c2)C1O` [Dihydromyricetin, (2R,3R)-3,5,7-trihydroxy-2-(3,4,5-trihydroxyphenyl) benzodihydropyran-4-one] gave a Mortality rate (ICR mice [1]; 3500 mg/kg i.g. once, day 0) of 0%, a Mortality rate (ICR mice [1]; 3500 mg/kg i.g. once, day 1) of 0% and a Mortality rate (ICR mice [1]; 3500 mg/kg i.g. once, day 2) of 0%. For the same molecule, the Mortality rate (ICR mice [1]; 3500 mg/kg i.g. once, day 3) was 0%, the Mortality rate (ICR mice [1]; 3500 mg/kg i.g. once, day 4) was 0% and the Mortality rate (ICR mice [1]; 3500 mg/kg i.g. once, day 5) was 0%. For the same molecule, the Mortality rate (ICR mice [1]; 3500 mg/kg i.g. once, day 6) was 0%, the Mortality rate (ICR mice [1]; 3500 mg/kg i.g. once, day 7) was 0% and the Mortality rate (ICR mice [1]; 5000 mg/kg i.g. once, day 0) was 0%. It also gave a Mortality rate (ICR mice [1]; 5000 mg/kg i.g. once, day 1) of 0%, a Mortality rate (ICR mice [1]; 5000 mg/kg i.g. once, day 2) of 0% and a Mortality rate (ICR mice [1]; 5000 mg/kg i.g. once, day 3) of 0%. The Mortality rate (ICR mice [1]; 5000 mg/kg i.g. once, day 4) was 0%, the Mortality rate (ICR mice [1]; 5000 mg/kg i.g. once, day 5) was 0% and the Mortality rate (ICR mice [1]; 5000 mg/kg i.g. once, day 6) was 0%. For the same molecule, the Mortality rate (ICR mice [1]; 5000 mg/kg i.g. once, day 7) was 0%, the “mortality rate during the test period” value (ICR mice [1]; 3500 and 5000 mg/kg, single oral administration) was 0 and the MTD at 7 days [2] was 5000 mg/kg. For the same molecule, the “solubility in chloroform and petroleum ether” value ([3]; chloroform and petroleum ether) was “hardly soluble”, the “solubility in ethyl acetate” value ([3]; ethyl acetate) was “very slightly soluble” and the “solubility in methanol, ethanol and acetone” value ([3]; methanol, ethanol and acetone) was “easily soluble”. The solubility in water ([3]; room temperature and cold water) was “Low solubility”, the Sobering time (ICR mice [4]; 350 mg/kg i.g. once) was 376.35 min and the Tolerance time (ICR mice [4]; 350 mg/kg i.g. once) was 77.40 min. It also gave a Number of deaths (ICR mice [4]; 350 mg/kg i.g. once) of 0, a Number of drunks (ICR mice [4]; 350 mg/kg i.g. once) of 19 and a Drunkenness rate (ICR mice [4]; 350 mg/kg i.g. once) of 95%. The Mortality rate (ICR mice [4]; 350 mg/kg i.g. once) was 0%, the Sobering time (ICR mice [4]; 1050 mg/kg i.g. once) was 214.32 min and the Tolerance time (ICR mice [4]; 1050 mg/kg i.g. once) was 193.00 min. The Number of deaths (ICR mice [4]; 1050 mg/kg i.g. once) was 1, the Number of drunks (ICR mice [4]; 1050 mg/kg i.g. once) was 14 and the Drunkenness rate (ICR mice [4]; 1050 mg/kg i.g. once) was 70%. For the same molecule, the Mortality rate (ICR mice [4]; 1050 mg/kg i.g. once) was 5%, the Sobering time (ICR mice [4]; 1050 mg/kg i.g. once, listed as dihydromyricetin) was 214 min and the “sobering time compared with the control group” value (ICR mice [4]; 1050 mg/kg, control group 324 min, statistically different) was “significantly lower”.
